Legend:
Assay in all cases: cells
LB771-HNC = format: functional, cell-based; details: Homo sapiens;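 also: growth inhibition of LB771-HNC human cells, read out with a cell viability assay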
Description: SANGER: Inhibition of human LB771-HNC cell growth in a cell viability assay.

OCI-AML2 = format: functional, cell-based, Homo sapiens; details: Homo sapiens, OCI-AML2;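 also: growth inhibition of OCI-AML2 cells, read out with a cell viability assay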
Description: SANGER: Inhibition of human OCI-AML2 cell growth in a cell viability assay.

COR-L88 = format: functional, cell-based, Homo sapiens; details: Homo sapiens, COR-L88;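 also: growth inhibition of COR-L88 cells, read out with a cell viability assay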
Description: SANGER: Inhibition of human COR-L88 cell growth in a cell viability assay.

BV-173 = format: functional, cell-based, Homo sapiens; details: Homo sapiens, BV-173
Description: SANGER: Inhibition of human BV-173 cell growth in a cell viability assay.

ML-2 = format: functional, cell-based, Homo sapiens; details: Homo sapiens, ML-2;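 also: growth inhibition of ML-2 cells, measured with a cell viability readout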
Description: SANGER: Inhibition of human ML-2 cell growth in a cell viability assay.

NKM-1 = format: functional, cell-based, Homo sapiens; details: Homo sapiens, NKM-1;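 also: growth inhibition of NKM-1 cells, read out with a cell viability assay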
Description: SANGER: Inhibition of human NKM-1 cell growth in a cell viability assay.

DB = format: functional, cell-based, Homo sapiens; details: Homo sapiens, DB
Description: SANGER: Inhibition of human DB cell growth in a cell viability assay.

ETK-1 = format: functional, cell-based, Homo sapiens; details: Homo sapiens, ETK-1;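 also: growth inhibition of human ETK-1 cells, read out with a cell viability assay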
Description: SANGER: Inhibition of human ETK-1 cell growth in a cell viability assay.

MV4-11 = format: functional, cell-based, Homo sapiens, MV-4-11; details: Homo sapiens, MV4-11;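 also: cell viability readout measuring growth inhibition of human MV-4-11 cells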
Description: SANGER: Inhibition of human MV-4-11 cell growth in a cell viability assay.

COLO-829 = format: functional, cell-based, Homo sapiens; details: Homo sapiens, COLO-829
Description: SANGER: Inhibition of human COLO-829 cell growth in a cell viability assay.

BB65-RCC = format: functional, cell-based, Homo sapiens; details: Homo sapiens, BB65-RCC;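 also: growth inhibition of the cell line, measured with a cell viability assay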
Description: SANGER: Inhibition of human BB65-RCC cell growth in a cell viability assay.

MEG-01 = format: functional, cell-based, Homo sapiens; details: Homo sapiens, MEG-01;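 also: growth inhibition of MEG-01 cells, read out by a cell viability assay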
Description: SANGER: Inhibition of human MEG-01 cell growth in a cell viability assay.

LAN-6 = format: functional, cell-based, Homo sapiens; details: Homo sapiens, LAN-6;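 also: growth inhibition of LAN-6 cells, determined with a cell viability assay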
Description: SANGER: Inhibition of human LAN-6 cell growth in a cell viability assay.

GI-1 = format: functional, cell-based, Homo sapiens; details: Homo sapiens, GI-1;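 also: growth inhibition of human GI-1 cells, measured with a cell viability readout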
Description: SANGER: Inhibition of human GI-1 cell growth in a cell viability assay.

HAL-01 = format: functional, cell-based, Homo sapiens; details: Homo sapiens, HAL-01;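 also: growth inhibition of human HAL-01 cells, read out with a cell viability assay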
Description: SANGER: Inhibition of human HAL-01 cell growth in a cell viability assay.

J-RT3-T3-5 = format: functional, cell-based, Homo sapiens; details: Homo sapiens, J-RT3-T3-5;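 also: cell viability assay measuring growth inhibition of human J-RT3-T3-5 cells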
Description: SANGER: Inhibition of human J-RT3-T3-5 cell growth in a cell viability assay.

NCI-H1395 = format: functional, cell-based, Homo sapiens; details: Homo sapiens, NCI-H1395;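 also: cell viability assay read-out quantifying reduced proliferation of human NCI-H1395 cells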
Description: SANGER: Inhibition of human NCI-H1395 cell growth in a cell viability assay.

JAR = format: functional, cell-based, Homo sapiens; details: Homo sapiens, JAR;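 also: growth inhibition of human JAR cells determined with a cell viability assay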
Description: SANGER: Inhibition of human JAR cell growth in a cell viability assay.

EW-3 = format: functional, cell-based, Homo sapiens; details: Homo sapiens, EW-3;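 also: cell viability assay read-out, IC50 reflects inhibition of growth of the EW-3 cells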
Description: SANGER: Inhibition of human EW-3 cell growth in a cell viability assay.

MZ2-MEL = format: functional, cell-based, Homo sapiens; details: Homo sapiens, MZ2-MEL;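 also: growth inhibition of MZ2-MEL cells read out with a cell viability assay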
Description: SANGER: Inhibition of human MZ2-MEL cell growth in a cell viability assay.

HCC2218 = format: functional, cell-based, Homo sapiens; details: Homo sapiens, HCC2218;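 also: cell viability assay read-out, with IC50 given as the concentration that inhibits growth of the cell line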
Description: SANGER: Inhibition of human HCC2218 cell growth in a cell viability assay.

IST-SL1 = format: functional, cell-based, Homo sapiens; details: Homo sapiens, IST-SL1;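 also: growth inhibition of human IST-SL1 cells, read out with a cell viability assay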
Description: SANGER: Inhibition of human IST-SL1 cell growth in a cell viability assay.

SCC-15 = format: functional, cell-based, Homo sapiens; details: Homo sapiens, SCC-15;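 also: growth inhibition of SCC-15 cells, read out with a cell viability assay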
Description: SANGER: Inhibition of human SCC-15 cell growth in a cell viability assay.

TE-1 = format: functional, cell-based, Homo sapiens; details: Homo sapiens, TE-1;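 also: growth inhibition of the human TE-1 cell line, read out with a cell viability assay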
Description: SANGER: Inhibition of human TE-1 cell growth in a cell viability assay.

SK-UT-1 = format: functional, cell-based, Homo sapiens; details: Homo sapiens, SK-UT-1;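 also: growth inhibition of SK-UT-1 cells, measured by a cell viability assay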
Description: SANGER: Inhibition of human SK-UT-1 cell growth in a cell viability assay.

NCI-H720 = format: functional, cell-based, Homo sapiens; details: Homo sapiens, NCI-H720;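 also: growth inhibition of human NCI-H720 cells determined by a cell viability assay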
Description: SANGER: Inhibition of human NCI-H720 cell growth in a cell viability assay.

BE-13 = format: functional, cell-based, Homo sapiens; details: Homo sapiens, BE-13;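 also: growth inhibition of human BE-13 cells, measured with a cell viability assay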
Description: SANGER: Inhibition of human BE-13 cell growth in a cell viability assay.

MFM-223 = format: functional, cell-based, Homo sapiens; details: Homo sapiens, MFM-223
Description: SANGER: Inhibition of human MFM-223 cell growth in a cell viability assay.

L-363 = format: functional, cell-based, Homo sapiens; details: Homo sapiens, L-363
Description: SANGER: Inhibition of human L-363 cell growth in a cell viability assay.

SNU1 = format: functional, cell-based, Homo sapiens; details: Homo sapiens, SNU1;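 also: growth inhibition of human NCI-SNU-1 cells, measured with a cell viability assay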
Description: SANGER: Inhibition of human NCI-SNU-1 cell growth in a cell viability assay.

MOLT-16 = format: functional, cell-based, Homo sapiens; details: Homo sapiens, MOLT-16;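 also: growth inhibition of human MOLT-16 cells, read out with a cell viability assay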
Description: SANGER: Inhibition of human MOLT-16 cell growth in a cell viability assay.

HT = format: functional, cell-based, Homo sapiens; details: Homo sapiens, HT
Description: SANGER: Inhibition of human HT cell growth in a cell viability assay.

EW-13 = format: functional, cell-based, Homo sapiens; details: Homo sapiens, EW-13; read-out: IC50;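 also: growth inhibition of EW-13 cells, read out with a cell viability assay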
Description: SANGER: Inhibition of human EW-13 cell growth in a cell viability assay.

A704 = format: functional, cell-based; details: Homo sapiens;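 also: growth inhibition of human A704 cells, read out with a cell viability assay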
Description: SANGER: Inhibition of human A704 cell growth in a cell viability assay.

KU812 cell line = format: functional, cell-based, Homo sapiens; details: Homo sapiens, KU812;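 also: growth inhibition of KU812 cells, read out with a cell viability assay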
Description: SANGER: Inhibition of human KU812 cell growth in a cell viability assay.

SK-NEP-1 = format: functional, cell-based, Homo sapiens; details: Homo sapiens, SK-NEP-1;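 also: growth inhibition of human SK-NEP-1 cells, read out by a cell viability assay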
Description: SANGER: Inhibition of human SK-NEP-1 cell growth in a cell viability assay.

KE-37 = format: functional, cell-based, Homo sapiens; details: Homo sapiens, KE-37;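 also: growth inhibition of KE-37 cells, read out with a cell viability assay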
Description: SANGER: Inhibition of human KE-37 cell growth in a cell viability assay.

BT-474 = format: functional, cell-based, Homo sapiens; details: Homo sapiens, BT-474
Description: SANGER: Inhibition of human BT-474 cell growth in a cell viability assay.

LOX IMVI = format: functional, cell-based, Homo sapiens; details: Homo sapiens, LOX IMVI
Description: SANGER: Inhibition of human LOXIMVI cell growth in a cell viability assay.

DMS-114 = format: functional, cell-based, Homo sapiens; details: Homo sapiens, DMS-114
OMC-1 = format: functional, cell-based, Homo sapiens; details: Homo sapiens, OMC-1;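 also: growth inhibition of the OMC-1 cell line, measured by a cell viability assay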
Description: SANGER: Inhibition of human OMC-1 cell growth in a cell viability assay.

TE-6 = format: functional, cell-based, Homo sapiens; details: Homo sapiens, TE-6;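 also: growth inhibition of TE-6 cells, read out with a cell viability assay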
Description: SANGER: Inhibition of human TE-6 cell growth in a cell viability assay.

U-87 MG = format: functional, cell-based, Homo sapiens, U-87MG ATCC; details: Homo sapiens, U-87 MG;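 also: growth inhibition of the cells measured with a viability assay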
Description: SANGER: Inhibition of human U-87-MG cell growth in a cell viability assay.

D-502MG = format: functional, cell-based, Homo sapiens; details: Homo sapiens, D-502MG
Description: SANGER: Inhibition of human D-502MG cell growth in a cell viability assay.

no-11 = format: functional, cell-based, Homo sapiens; details: Homo sapiens;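 also: growth inhibition of human NO-11 cells, read out with a cell viability assay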
Description: SANGER: Inhibition of human no-11 cell growth in a cell viability assay.

KP-N-YS = format: functional, cell-based, Homo sapiens; details: Homo sapiens, KP-N-YS;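 also: cell viability assay measuring inhibition of cell line growth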
Description: SANGER: Inhibition of human KP-N-YS cell growth in a cell viability assay.

DJM-1 = format: functional, cell-based, Homo sapiens; details: Homo sapiens, DJM-1;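 also: growth inhibition of human DJM-1 cells, read out by a cell viability assay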
Description: SANGER: Inhibition of human DJM-1 cell growth in a cell viability assay.

RCC10RGB = format: functional, cell-based, Homo sapiens; details: Homo sapiens, RCC10RGB;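 also: growth inhibition of human RCC10RGB cells, read out by a cell viability assay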
Description: SANGER: Inhibition of human RCC10RGB cell growth in a cell viability assay.

SW872 = format: functional, cell-based, Homo sapiens; details: Homo sapiens, SW872;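 also: growth inhibition of SW872 cells, read out by a viability assay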
Description: SANGER: Inhibition of human SW872 cell growth in a cell viability assay.

Question: What does the source list for `COc1ccc(N(C(=O)Oc2c(C)cccc2C)c2ccnc(Nc3ccc(N4CCN(C)CC4)cc3)n2)c(OC)c1`?
Answer: IC50 (LB771-HNC): > 5120 nM; IC50 (OCI-AML2): > 5120 nM; IC50 (COR-L88): > 5120 nM; IC50 (BV-173): < 20 nM; IC50 (ML-2): > 5120 nM; IC50 (NKM-1): > 5120 nM; IC50 (DB): > 5120 nM; IC50 (ETK-1): > 5120 nM; IC50 (MV4-11): > 5120 nM; IC50 (COLO-829): 312 nM; IC50 (BB65-RCC): 4700 nM; IC50 (MEG-01): < 20 nM; IC50 (LAN-6): > 5120 nM; IC50 (GI-1): > 5120 nM; IC50 (HAL-01): > 5120 nM; IC50 (J-RT3-T3-5): > 5120 nM; IC50 (NCI-H1395): > 5120 nM; IC50 (JAR): > 5120 nM; IC50 (EW-3): > 5120 nM; IC50 (MZ2-MEL): 3090 nM; IC50 (HCC2218): > 5120 nM; IC50 (IST-SL1): > 5120 nM; IC50 (SCC-15): > 5120 nM; IC50 (TE-1): > 5120 nM; IC50 (SK-UT-1): > 5120 nM; IC50 (NCI-H720): > 5120 nM; IC50 (BE-13): > 5120 nM; IC50 (MFM-223): > 5120 nM; IC50 (L-363): > 5120 nM; IC50 (SNU1): > 5120 nM; IC50 (MOLT-16): > 5120 nM; IC50 (HT): > 5120 nM; IC50 (EW-13): > 5120 nM; IC50 (A704): < 20 nM; IC50 (KU812 cell line): > 5120 nM; IC50 (SK-NEP-1): > 5120 nM; IC50 (KE-37): > 5120 nM; IC50 (BT-474): > 5120 nM; IC50 (LOX IMVI): > 5120 nM; IC50 (DMS-114): 2790 nM; IC50 (OMC-1): > 5120 nM; IC50 (TE-6): > 5120 nM; IC50 (U-87 MG): > 5120 nM; IC50 (D-502MG): > 5120 nM; IC50 (no-11): > 5120 nM; IC50 (KP-N-YS): 4920 nM; IC50 (DJM-1): > 5120 nM; IC50 (RCC10RGB): 426 nM; IC50 (SW872): 865 nM

Question: For `NC(=O)c1cccc(-c2cc(Nc3ccc(OC(F)(F)F)cc3)ncn2)c1`, which IC50 (LB771-HNC) is on record?
Answer: The IC50 was > 1280 nM.

Question: What about the IC50 (OCI-AML2) of the same compound?
Answer: The IC50 was > 1280 nM.

Question: And the IC50 (COR-L88)?
Answer: Its IC50 is > 1280 nM.

Question: What about the IC50 (BV-173) of the same compound?
Answer: The IC50 was 286 nM.

Question: And the IC50 (ML-2)?
Answer: Its IC50 is > 1280 nM.

Question: What about the IC50 (NKM-1) of the same compound?
Answer: Its IC50 is > 1280 nM.

Question: What about the IC50 (DB) of the same compound?
Answer: Its IC50 is > 1280 nM.

Question: And the IC50 (ETK-1)?
Answer: Its IC50 is > 1280 nM.

Question: And the IC50 (MV4-11)?
Answer: Its IC50 is > 1280 nM.

Question: What about the IC50 (COLO-829) of the same compound?
Answer: The IC50 was > 1280 nM.

Question: And the IC50 (BB65-RCC)?
Answer: The IC50 was > 1280 nM.

Question: What about the IC50 (MEG-01) of the same compound?
Answer: The IC50 was 503 nM.

Question: What about the IC50 (LAN-6) of the same compound?
Answer: The IC50 was > 1280 nM.

Question: What about the IC50 (GI-1) of the same compound?
Answer: The IC50 was > 1280 nM.

Question: What about the IC50 (HAL-01) of the same compound?
Answer: The IC50 was > 1280 nM.

Question: What about the IC50 (J-RT3-T3-5) of the same compound?
Answer: The IC50 was > 1280 nM.

Question: What about the IC50 (NCI-H1395) of the same compound?
Answer: Its IC50 is > 1280 nM.

Question: And the IC50 (JAR)?
Answer: Its IC50 is > 1280 nM.

Question: And the IC50 (EW-3)?
Answer: The IC50 was > 1280 nM.

Question: What about the IC50 (MZ2-MEL) of the same compound?
Answer: The IC50 was > 1280 nM.

Question: What about the IC50 (HCC2218) of the same compound?
Answer: The IC50 was > 1280 nM.

Question: And the IC50 (IST-SL1)?
Answer: The IC50 was > 1280 nM.

Question: What about the IC50 (SCC-15) of the same compound?
Answer: The IC50 was > 1280 nM.

Question: And the IC50 (TE-1)?
Answer: The IC50 was > 1280 nM.

Question: What about the IC50 (SK-UT-1) of the same compound?
Answer: The IC50 was > 1280 nM.

Question: What about the IC50 (NCI-H720) of the same compound?
Answer: The IC50 was > 1280 nM.

Question: And the IC50 (BE-13)?
Answer: The IC50 was > 1280 nM.

Question: What about the IC50 (MFM-223) of the same compound?
Answer: Its IC50 is > 1280 nM.

Question: And the IC50 (L-363)?
Answer: The IC50 was > 1280 nM.

Question: What about the IC50 (SNU1) of the same compound?
Answer: The IC50 was > 1280 nM.

Question: What about the IC50 (MOLT-16) of the same compound?
Answer: Its IC50 is > 1280 nM.

Question: What about the IC50 (HT) of the same compound?
Answer: Its IC50 is > 1280 nM.

Question: And the IC50 (EW-13)?
Answer: The IC50 was > 1280 nM.

Question: And the IC50 (A704)?
Answer: The IC50 was > 1280 nM.

Question: What about the IC50 (KU812 cell line) of the same compound?
Answer: Its IC50 is > 1280 nM.

Question: What about the IC50 (SK-NEP-1) of the same compound?
Answer: The IC50 was > 1280 nM.

Question: What about the IC50 (KE-37) of the same compound?
Answer: Its IC50 is > 1280 nM.

Question: What about the IC50 (BT-474) of the same compound?
Answer: The IC50 was > 1280 nM.

Question: And the IC50 (LOX IMVI)?
Answer: The IC50 was > 1280 nM.

Question: And the IC50 (DMS-114)?
Answer: Its IC50 is > 1280 nM.

Question: And the IC50 (OMC-1)?
Answer: The IC50 was > 1280 nM.

Question: What about the IC50 (TE-6) of the same compound?
Answer: Its IC50 is > 1280 nM.

Question: And the IC50 (U-87 MG)?
Answer: The IC50 was > 1280 nM.

Question: What about the IC50 (D-502MG) of the same compound?
Answer: Its IC50 is > 1280 nM.

Question: And the IC50 (no-11)?
Answer: The IC50 was > 1280 nM.

Question: And the IC50 (KP-N-YS)?
Answer: Its IC50 is > 1280 nM.

Question: And the IC50 (DJM-1)?
Answer: Its IC50 is > 1280 nM.

Question: What about the IC50 (RCC10RGB) of the same compound?
Answer: The IC50 was > 1280 nM.

Question: What about the IC50 (SW872) of the same compound?
Answer: The IC50 was > 1280 nM.

— ChEMBL document CHEMBL1201861, “Genomics of Drug Sensitity in Cancer screening data, Wellcome Trust Sanger Institute”
